# Laboratory results published in patent US10351575B2, “Bicyclic urea, thiourea, guanidine and cyanoguanidine compounds useful for the treatment of pain” (Array BioPharma Inc., priority 2012, dated 2019).
# What was measured:
# Experiment in all cases: KinaseProfiler off-target kinase profiling
# Assay type in all cases: biochemical
# Conditions in all cases: 10 μM, ATP near Km
# MKK4_m = MKK4_m (Mus musculus (Mouse), UniProt P47809)
# Method in brief: (§1)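 10 μM test compound; ATP ~Km per kinase; n=2. Readout: POC, mean of duplicates.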
# MST2 = MST2 (Homo sapiens (Human), UniProt Q13188)
# Method in brief: as §1
# MYLK = MYLK (Homo sapiens (Human), UniProt Q15746)
# Method in brief: as §1
# Pim-1 = Pim-1 (Homo sapiens (Human), UniProt P11309)
# Method in brief: as §1
# Rsk2 = Rsk2 (Homo sapiens (Human), UniProt P51812)
# Method in brief: as §1
# Met = Met (Homo sapiens (Human), UniProt P08581)
# Method in brief: as §1
# KIT = KIT (Homo sapiens (Human), UniProt P10721)
# Method in brief: as §1
# EphA3 = EphA3 (Homo sapiens (Human), UniProt P29320)
# Method in brief: as §1
# JNK2alpha2 = JNK2alpha2 (Homo sapiens (Human), UniProt P45984)
# Method in brief: as §1
# TAO2 = TAO2 (Homo sapiens (Human), UniProt Q9UL54)
# Method in brief: as §1
# HIPK3 = HIPK3 (Homo sapiens (Human), UniProt Q9H422)
# Method in brief: as §1
# PAK5 = PAK5 (Homo sapiens (Human), UniProt Q9P286)
# Method in brief: as §1
# TAO3 = TAO3 (Homo sapiens (Human), UniProt Q9H2K8)
# TAO3, sequence (Q9H2K8 whole entry): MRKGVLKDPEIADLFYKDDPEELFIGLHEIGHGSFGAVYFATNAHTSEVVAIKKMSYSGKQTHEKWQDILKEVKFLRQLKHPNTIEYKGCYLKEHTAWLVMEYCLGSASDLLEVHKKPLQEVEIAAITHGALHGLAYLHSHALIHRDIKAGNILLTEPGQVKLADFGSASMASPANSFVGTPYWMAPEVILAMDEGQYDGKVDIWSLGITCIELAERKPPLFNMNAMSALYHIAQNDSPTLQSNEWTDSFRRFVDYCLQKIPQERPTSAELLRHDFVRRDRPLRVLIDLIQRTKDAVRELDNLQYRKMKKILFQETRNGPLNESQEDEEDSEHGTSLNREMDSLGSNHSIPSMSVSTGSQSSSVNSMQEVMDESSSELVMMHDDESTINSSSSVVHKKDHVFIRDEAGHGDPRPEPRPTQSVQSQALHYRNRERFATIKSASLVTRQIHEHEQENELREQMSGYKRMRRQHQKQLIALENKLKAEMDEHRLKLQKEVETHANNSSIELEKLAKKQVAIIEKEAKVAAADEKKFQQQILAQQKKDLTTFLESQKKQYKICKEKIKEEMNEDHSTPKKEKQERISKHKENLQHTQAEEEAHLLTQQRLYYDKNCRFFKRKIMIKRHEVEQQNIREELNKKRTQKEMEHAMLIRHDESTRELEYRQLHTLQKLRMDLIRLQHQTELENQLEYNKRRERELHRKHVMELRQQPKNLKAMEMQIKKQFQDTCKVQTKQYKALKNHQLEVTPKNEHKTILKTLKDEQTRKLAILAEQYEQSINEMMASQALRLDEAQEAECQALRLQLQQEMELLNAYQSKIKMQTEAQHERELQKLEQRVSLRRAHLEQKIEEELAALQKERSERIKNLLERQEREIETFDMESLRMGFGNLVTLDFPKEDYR
# Method in brief: as §1
# TSSK1 = TSSK1 (Homo sapiens (Human), UniProt Q9BXA7)
# Method in brief: as §1
# PKCepsilon = PKCepsilon (Homo sapiens (Human), UniProt Q02156)
# Method in brief: as §1
# p38beta = p38beta (Homo sapiens (Human), UniProt Q15759)
# Method in brief: as §1
# EphB1 = EphB1 (Homo sapiens (Human), UniProt P54762)
# EphB1, sequence (P54762 18-984): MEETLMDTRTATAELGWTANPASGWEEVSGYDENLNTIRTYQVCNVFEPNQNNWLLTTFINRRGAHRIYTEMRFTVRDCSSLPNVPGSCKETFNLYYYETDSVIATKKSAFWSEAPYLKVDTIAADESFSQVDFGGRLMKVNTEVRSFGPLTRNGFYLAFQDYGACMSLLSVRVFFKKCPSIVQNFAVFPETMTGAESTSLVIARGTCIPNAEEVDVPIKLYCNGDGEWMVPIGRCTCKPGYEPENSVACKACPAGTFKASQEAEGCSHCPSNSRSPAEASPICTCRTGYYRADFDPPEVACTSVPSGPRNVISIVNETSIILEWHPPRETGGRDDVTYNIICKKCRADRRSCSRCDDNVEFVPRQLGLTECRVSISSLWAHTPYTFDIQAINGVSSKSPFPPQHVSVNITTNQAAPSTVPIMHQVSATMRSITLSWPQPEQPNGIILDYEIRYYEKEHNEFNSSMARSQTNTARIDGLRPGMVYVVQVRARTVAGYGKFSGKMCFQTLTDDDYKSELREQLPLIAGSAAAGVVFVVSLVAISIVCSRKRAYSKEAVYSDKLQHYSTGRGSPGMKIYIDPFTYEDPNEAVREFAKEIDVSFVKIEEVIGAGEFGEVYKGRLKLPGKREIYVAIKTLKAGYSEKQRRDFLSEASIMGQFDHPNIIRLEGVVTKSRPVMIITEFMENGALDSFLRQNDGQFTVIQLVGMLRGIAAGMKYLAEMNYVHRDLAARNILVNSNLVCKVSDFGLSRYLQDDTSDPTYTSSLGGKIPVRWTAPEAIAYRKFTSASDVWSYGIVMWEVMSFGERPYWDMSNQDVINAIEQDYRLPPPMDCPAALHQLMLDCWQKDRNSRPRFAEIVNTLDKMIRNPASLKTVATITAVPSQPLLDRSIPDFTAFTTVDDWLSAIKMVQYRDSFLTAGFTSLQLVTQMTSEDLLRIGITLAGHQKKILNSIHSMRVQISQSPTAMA
# Method in brief: as §1
# ARK5 = ARK5 (Homo sapiens (Human), UniProt O60285)
# Method in brief: as §1
# CAMK1 = CAMK1 (Homo sapiens (Human), UniProt Q14012)
# Method in brief: as §1
# Plk1 = Plk1 (Homo sapiens (Human), UniProt P53350)
# Method in brief: as §1
# CHK1 = CHK1 (Homo sapiens (Human), UniProt O14757)
# Method in brief: as §1
# HIPK2 = HIPK2 (Homo sapiens (Human), UniProt Q9H2X6)
# Method in brief: as §1
# CDK7/cyclinH/MAT1 = CDK7/cyclinH/MAT1 (Homo sapiens (Human), UniProt P50613)
# Method in brief: as §1
# Flt4 = Flt4 (Homo sapiens (Human), UniProt P35916)
# Method in brief: as §1
# Rsk3 = Rsk3 (Homo sapiens (Human), UniProt Q15349)
# Rsk3, sequence (Q15349 whole entry): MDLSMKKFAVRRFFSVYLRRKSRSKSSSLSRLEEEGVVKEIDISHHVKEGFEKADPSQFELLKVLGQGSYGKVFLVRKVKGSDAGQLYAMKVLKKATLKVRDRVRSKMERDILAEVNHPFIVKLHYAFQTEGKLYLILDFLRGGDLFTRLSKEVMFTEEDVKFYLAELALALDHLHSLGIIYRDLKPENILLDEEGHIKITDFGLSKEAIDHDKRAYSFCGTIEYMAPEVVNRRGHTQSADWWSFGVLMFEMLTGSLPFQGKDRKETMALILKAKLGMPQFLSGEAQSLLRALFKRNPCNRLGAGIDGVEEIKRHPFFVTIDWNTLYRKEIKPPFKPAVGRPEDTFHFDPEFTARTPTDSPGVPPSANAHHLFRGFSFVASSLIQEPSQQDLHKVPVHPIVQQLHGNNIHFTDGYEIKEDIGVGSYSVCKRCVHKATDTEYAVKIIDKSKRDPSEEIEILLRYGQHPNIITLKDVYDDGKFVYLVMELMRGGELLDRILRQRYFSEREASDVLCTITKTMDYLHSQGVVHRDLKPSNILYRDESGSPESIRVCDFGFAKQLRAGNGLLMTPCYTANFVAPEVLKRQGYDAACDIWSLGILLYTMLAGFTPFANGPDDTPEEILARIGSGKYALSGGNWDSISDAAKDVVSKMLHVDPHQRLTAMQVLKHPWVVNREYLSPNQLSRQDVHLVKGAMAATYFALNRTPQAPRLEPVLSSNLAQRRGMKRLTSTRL
# Method in brief: as §1
# WNK3 = WNK3 (Homo sapiens (Human), UniProt Q9BYP7)
# Method in brief: as §1
# LIMK1 = LIMK1 (Homo sapiens (Human), UniProt P53667)
# Method in brief: as §1
# ULK2 = ULK2 (Homo sapiens (Human), UniProt Q8IYT8)
# ULK2, sequence (Q8IYT8 whole entry): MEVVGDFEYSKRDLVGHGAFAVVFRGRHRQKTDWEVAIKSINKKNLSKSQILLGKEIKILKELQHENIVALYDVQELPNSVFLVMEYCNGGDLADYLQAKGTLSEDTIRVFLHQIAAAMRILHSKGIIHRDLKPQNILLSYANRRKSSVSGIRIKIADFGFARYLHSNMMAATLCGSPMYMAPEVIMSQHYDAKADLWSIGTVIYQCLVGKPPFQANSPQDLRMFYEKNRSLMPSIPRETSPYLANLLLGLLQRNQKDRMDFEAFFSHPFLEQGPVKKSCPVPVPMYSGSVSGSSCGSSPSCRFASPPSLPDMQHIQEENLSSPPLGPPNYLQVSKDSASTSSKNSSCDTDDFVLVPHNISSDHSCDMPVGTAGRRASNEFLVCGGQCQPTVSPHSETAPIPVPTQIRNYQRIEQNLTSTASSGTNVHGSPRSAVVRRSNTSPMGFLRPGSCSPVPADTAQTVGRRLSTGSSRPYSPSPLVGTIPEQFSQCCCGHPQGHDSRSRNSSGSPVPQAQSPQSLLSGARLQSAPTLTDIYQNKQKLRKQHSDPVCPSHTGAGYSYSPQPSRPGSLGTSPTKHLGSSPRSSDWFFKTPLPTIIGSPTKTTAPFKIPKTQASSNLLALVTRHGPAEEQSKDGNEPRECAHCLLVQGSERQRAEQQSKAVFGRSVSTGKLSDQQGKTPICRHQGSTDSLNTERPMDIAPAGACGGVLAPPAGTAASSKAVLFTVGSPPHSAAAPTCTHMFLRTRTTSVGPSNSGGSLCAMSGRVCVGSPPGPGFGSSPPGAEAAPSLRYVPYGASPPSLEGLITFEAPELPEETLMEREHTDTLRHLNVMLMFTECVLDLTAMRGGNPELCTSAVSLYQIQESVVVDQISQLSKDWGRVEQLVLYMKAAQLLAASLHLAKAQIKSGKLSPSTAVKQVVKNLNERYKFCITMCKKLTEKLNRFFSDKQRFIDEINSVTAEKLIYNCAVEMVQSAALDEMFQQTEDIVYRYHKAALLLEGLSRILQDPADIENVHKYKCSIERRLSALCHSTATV
# Method in brief: as §1
# PASK = PASK (Homo sapiens (Human), UniProt Q96RG2)
# PASK, sequence (Q96RG2 whole entry): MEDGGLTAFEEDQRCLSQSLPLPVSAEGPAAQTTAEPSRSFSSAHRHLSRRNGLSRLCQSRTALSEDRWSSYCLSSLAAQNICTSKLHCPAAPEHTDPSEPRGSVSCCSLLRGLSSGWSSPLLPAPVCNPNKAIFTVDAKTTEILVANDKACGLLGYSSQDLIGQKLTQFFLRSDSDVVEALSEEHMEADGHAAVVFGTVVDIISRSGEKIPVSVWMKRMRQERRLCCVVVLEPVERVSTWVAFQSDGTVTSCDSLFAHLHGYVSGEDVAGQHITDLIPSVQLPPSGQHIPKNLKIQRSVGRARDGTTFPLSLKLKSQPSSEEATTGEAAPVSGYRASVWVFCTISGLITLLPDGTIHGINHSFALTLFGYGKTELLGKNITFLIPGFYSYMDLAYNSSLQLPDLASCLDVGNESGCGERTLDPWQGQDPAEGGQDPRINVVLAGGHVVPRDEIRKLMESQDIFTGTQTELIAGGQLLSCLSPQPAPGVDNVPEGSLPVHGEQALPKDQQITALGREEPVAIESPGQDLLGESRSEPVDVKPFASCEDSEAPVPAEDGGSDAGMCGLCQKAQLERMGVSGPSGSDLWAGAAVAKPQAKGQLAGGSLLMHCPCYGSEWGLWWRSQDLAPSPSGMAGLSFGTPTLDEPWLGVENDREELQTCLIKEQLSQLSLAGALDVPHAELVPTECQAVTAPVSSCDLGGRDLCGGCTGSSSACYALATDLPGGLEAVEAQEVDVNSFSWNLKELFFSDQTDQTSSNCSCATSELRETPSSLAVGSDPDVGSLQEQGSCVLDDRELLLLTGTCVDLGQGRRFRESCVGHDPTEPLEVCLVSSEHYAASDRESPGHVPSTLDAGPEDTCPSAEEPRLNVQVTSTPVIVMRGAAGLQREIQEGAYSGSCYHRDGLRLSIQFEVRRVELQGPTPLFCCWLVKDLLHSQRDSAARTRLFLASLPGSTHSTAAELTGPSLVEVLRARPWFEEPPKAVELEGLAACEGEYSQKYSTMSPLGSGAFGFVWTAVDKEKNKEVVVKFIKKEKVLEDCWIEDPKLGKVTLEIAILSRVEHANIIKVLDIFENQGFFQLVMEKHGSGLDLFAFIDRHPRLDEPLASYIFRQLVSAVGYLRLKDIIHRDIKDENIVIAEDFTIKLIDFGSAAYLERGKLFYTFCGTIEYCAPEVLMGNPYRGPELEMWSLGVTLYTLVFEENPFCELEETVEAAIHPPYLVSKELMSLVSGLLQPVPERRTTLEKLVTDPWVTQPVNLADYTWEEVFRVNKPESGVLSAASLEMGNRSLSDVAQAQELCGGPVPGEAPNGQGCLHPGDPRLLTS
# Method in brief: as §1
# MKK7beta = MKK7beta (Homo sapiens (Human), UniProt O14733)
# Method in brief: as §1
# PRKG1beta = PRKG1beta (Homo sapiens (Human), UniProt Q13976)
# Method in brief: as §1
# CK2 = CK2 (Homo sapiens (Human), UniProt P68400)
# Method in brief: as §1
# CDK2/cyclinE = CDK2/cyclinE (Homo sapiens (Human), UniProt P24941)
# Method in brief: as §1
# IRAK4 = IRAK4 (Homo sapiens (Human), UniProt Q9NWZ3)
# Method in brief: as §1
# CK1gamma2 = CK1gamma2 (Homo sapiens (Human), UniProt P78368)
# Method in brief: as §1
# TNK2 = TNK2 (Homo sapiens (Human), UniProt Q07912)
# Method in brief: as §1
# FGFR3 = FGFR3 (Homo sapiens (Human), UniProt P22607)
# Method in brief: as §1
# Syk = Syk (Homo sapiens (Human), UniProt P43405)
# Method in brief: as §1
# PKD2 = PKD2 (Homo sapiens (Human), UniProt Q9BZL6)
# Method in brief: as §1
SMILES,Avg. POC (MKK4_m) [POC],Avg. POC (MST2) [POC],Avg. POC (MYLK) [POC],Avg. POC (Pim-1) [POC],Avg. POC (Rsk2) [POC],Avg. POC (Met) [POC],Avg. POC (KIT) [POC],Avg. POC (EphA3) [POC],Avg. POC (JNK2alpha2) [POC],Avg. POC (TAO2) [POC],Avg. POC (HIPK3) [POC],Avg. POC (PAK5) [POC],Avg. POC (TAO3) [POC],Avg. POC (TSSK1) [POC],Avg. POC (PKCepsilon) [POC],Avg. POC (p38beta) [POC],Avg. POC (EphB1) [POC],Avg. POC (ARK5) [POC],Avg. POC (CAMK1) [POC],Avg. POC (Plk1) [POC],also measured
"Cc1c(-c2cnn(C)c2)nn(-c2ccccc2)c1NC(=O)N[C@H]1CCCc2ccccc21 [Example 2, (S)-1-(1′,4-dimethyl-1-phenyl-1H,1′H-3,4′-bipyrazol-5-yl)-3-(1,2,3,4-tetrahydronaphthalen-1-yl)urea]",102.5,110.5,100,173,137,148.5,104,123.5,103.5,110,119.5,109.5,111,106,101.5,113,108.5,109.5,109.5,95,Avg. POC (CHK1): 106.5 POC; Avg. POC (HIPK2): 97 POC; Avg. POC (CDK7/cyclinH/MAT1): 111 POC; Avg. POC (Flt4): 99 POC; Avg. POC (Rsk3): 106 POC; Avg. POC (WNK3): 109.5 POC; Avg. POC (LIMK1): 105 POC; Avg. POC (ULK2): 99 POC; Avg. POC (PASK): 143 POC; Avg. POC (MKK7beta): 129.5 POC; Avg. POC (PRKG1beta): 122 POC; Avg. POC (CK2): 107 POC; Avg. POC (CDK2/cyclinE): 116.5 POC; Avg. POC (IRAK4): 125.5 POC; Avg. POC (CK1gamma2): 142.5 POC; Avg. POC (TNK2): 100.5 POC; Avg. POC (FGFR3): 113.5 POC; Avg. POC (Syk): 115 POC; Avg. POC (PKD2): 102 POC
"Cc1c(-c2cnn(C)c2)nn(-c2ccccc2)c1NC(=O)NC1CCOc2cc(F)ccc21 (stereo not drawn) [Example 12, 1-(1′,4-dimethyl-1-phenyl-1H,1′H-[3,4′-bipyrazol]-5-yl)-3-(7-fluorochroman-4-yl)urea]",144.5,106.5,99,106,103,109,102.5,114.5,96,121,102.5,143,99,79,97.5,115.5,114,99.5,102,98.5,Avg. POC (CHK1): 99.5 POC; Avg. POC (HIPK2): 91.5 POC; Avg. POC (CDK7/cyclinH/MAT1): 101 POC; Avg. POC (Flt4): 83.5 POC; Avg. POC (Rsk3): 90 POC; Avg. POC (WNK3): 112.5 POC; Avg. POC (LIMK1): 97.5 POC; Avg. POC (ULK2): 99 POC; Avg. POC (PASK): 125.5 POC; Avg. POC (MKK7beta): 122.5 POC; Avg. POC (PRKG1beta): 95.5 POC; Avg. POC (CK2): 98 POC; Avg. POC (CDK2/cyclinE): 96.5 POC; Avg. POC (IRAK4): 95.5 POC; Avg. POC (CK1gamma2): 114.5 POC; Avg. POC (TNK2): 117.5 POC; Avg. POC (FGFR3): 109 POC; Avg. POC (Syk): 108.5 POC; Avg. POC (PKD2): 94 POC
"Cc1c(-c2ccc(=O)n(C)c2)nn(-c2ccccc2)c1NC(=O)NC1CN(CC(F)(F)F)Cc2ccccc21 (stereo not drawn) [Example 26, 1-(4-methyl-3-(1-methyl-6-oxo-1,6-dihydropyridin-3-yl)-1-phenyl-1H-pyrazol-5-yl)-3-(2-(2,2,2-trifluoroethyl)-1,2,3,4-tetrahydroisoquinolin-4-yl)urea]",99.5,111,101,97.5,105.5,81,94,128,104,111,111,121.5,109,71.5,106.5,115.5,116.5,100.5,106,108,Avg. POC (CHK1): 70.5 POC; Avg. POC (HIPK2): 103 POC; Avg. POC (CDK7/cyclinH/MAT1): 113.5 POC; Avg. POC (Flt4): 106 POC; Avg. POC (Rsk3): 76.5 POC; Avg. POC (WNK3): 103.5 POC; Avg. POC (LIMK1): 102 POC; Avg. POC (ULK2): 102 POC; Avg. POC (PASK): 124.5 POC; Avg. POC (MKK7beta): 144.5 POC; Avg. POC (PRKG1beta): 111.5 POC; Avg. POC (CK2): 110.5 POC; Avg. POC (CDK2/cyclinE): 97.5 POC; Avg. POC (IRAK4): 102 POC; Avg. POC (CK1gamma2): 112.5 POC; Avg. POC (TNK2): 123 POC; Avg. POC (FGFR3): 101 POC; Avg. POC (Syk): 93.5 POC; Avg. POC (PKD2): 102 POC
